Results as given in article PMC9841532, “Exploring the Effect of Halogenation in a Series of Potent and Selective A2B Adenosine Receptor Antagonists” (Journal of Medicinal Chemistry, 2022).

Assays:
CYP3A4 = molecular target: T1, CYP3A4 (Homo sapiens, UniProt P08684); assay: CYP3A4 inhibition (fluorescence, substrates DBF or 7-BFC); type: biochemical; conditions: for CYP3A4 % inh. at 10 μM, 7-BFC: substrate 7-benzyloxy-4-trifluoromethyl-coumarin; for IC50: IC50 obtained by extrapolation with analysis software, read-out: CYP3A4 IC50, DBF
T1 construct: host or cells: insect cell microsomes
T1 sequence (P08684 whole entry): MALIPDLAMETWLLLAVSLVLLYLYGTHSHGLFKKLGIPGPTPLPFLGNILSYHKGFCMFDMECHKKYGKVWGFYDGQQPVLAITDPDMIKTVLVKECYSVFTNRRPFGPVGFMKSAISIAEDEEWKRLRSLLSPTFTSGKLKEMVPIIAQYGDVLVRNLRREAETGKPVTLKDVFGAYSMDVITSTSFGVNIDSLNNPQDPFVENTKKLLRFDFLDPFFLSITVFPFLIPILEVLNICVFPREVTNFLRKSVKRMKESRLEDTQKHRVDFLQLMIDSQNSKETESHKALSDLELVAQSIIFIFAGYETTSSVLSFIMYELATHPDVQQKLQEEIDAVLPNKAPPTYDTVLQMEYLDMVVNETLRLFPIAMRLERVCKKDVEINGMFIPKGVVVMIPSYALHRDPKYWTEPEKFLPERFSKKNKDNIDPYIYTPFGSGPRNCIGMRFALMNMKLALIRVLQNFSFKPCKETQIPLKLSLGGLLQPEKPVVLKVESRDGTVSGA
Procedure: To identify potential metabolic liabilities within the series here documented, the selected A2BAR antagonists were tested in vitro for CYP3A4 inhibitory activity.
The inhibitory activity of selected compounds was evaluated by following a previously described method.[31] […] The plate was then pre-incubated at 37 °C for 5 min and the reaction initiated by the addition of a pre-warmed enzyme/substrate (E/S) mix. The E/S mix contained buffer (KH2PO4), c-DNA-expressed P450 in insect cell microsomes, substrate (DBF: dibenzylfluorescein or 7-BFC: 7-benzyloxy-4-trifluoromethyl-coumarin) and other components to give the final assay concentrations in a reaction volume of 200 μL. Reactions were terminated after various times (a specific time for each cytochrome) by addition of STOP solution (ACN/Tris–HCl 0.5 M 80:20, and NaOH 2 N for CYP3A4). Fluorescence per well was measured using a fluorescence plate reader (Tecan Infinite M1000 PRO), and percentage of inhibition was calculated. In silico predictions were performed using free web-based models (FAME 3, SmartCYP, and Xenosite).[62]−[64]

A2BAR = molecular target: T2, A2BAR (Homo sapiens, UniProt P29275); assay: Cellular impedance label-free assay (xCELLigence) in A2BAR-SNAP cells; type: cell-based; conditions: compound 1 μM, NECA 1 μM, 45 min, n = 4
T2 construct: expressed in transfected cells; host or cells: HEK-293 T cells permanently expressing pRK5-A2BAR^SNAP
T2 sequence (P29275 1-332): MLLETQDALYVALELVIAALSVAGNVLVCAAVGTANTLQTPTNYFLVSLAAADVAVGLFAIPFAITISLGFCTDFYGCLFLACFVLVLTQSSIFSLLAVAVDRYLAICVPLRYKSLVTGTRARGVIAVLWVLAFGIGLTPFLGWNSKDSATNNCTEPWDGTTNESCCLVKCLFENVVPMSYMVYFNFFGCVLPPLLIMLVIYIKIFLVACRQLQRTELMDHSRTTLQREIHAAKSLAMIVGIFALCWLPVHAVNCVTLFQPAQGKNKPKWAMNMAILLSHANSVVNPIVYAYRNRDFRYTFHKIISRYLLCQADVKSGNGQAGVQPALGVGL
Source text: To further evaluate the ability of 16b, 16j, 16r, and 16s to preclude A2BAR function in living cells, we took advantage of the cellular impedance label-free method, a widely accepted morphological and functional biosensor of cell status.[39] Accordingly, whole-cell NECA-mediated impedance responses of A2BAR^SNAP cells were monitored in real time in the absence or presence of 16b, 16j, 16r, and 16s.
Figure 4 Blockade of A2BAR-mediated whole-cell label-free responses. (A) Representative example of the impedance signal obtained over the time upon incubation with A2BAR ligands. […] (B) The area under the curve (AUC) derived from the normalized cell index (NCI) shown in (A) was calculated for each condition. Data are expressed as mean ± SEM (n = 4). ***P < 0.001 and **P < 0.01, one-way ANOVA with a Dunnett’s multiple-comparison test when compared to vehicle (Veh).
The xCELLigence RTCA system (Roche) was employed to assess the impact of blocking A2BAR-mediated effects in cellular impedance upon receptor activation, as previously described.[57]−[60] To this end, A2BAR^SNAP cells were growth in 16-well E-plates (Roche), using DMEM supplemented with 1 mM sodium pyruvate, 2 mM L-glutamine, 100 U/mL streptomycin, […] penicillin, and 1.5% (v/v) fetal bovine serum in the presence of 0.5 U/mL of ADA. Of note, wells were previously coated with 50 μL fibronectin (10 μg/mL; Sigma-Aldrich) and the background index for each well was determined with supplemented DMEM (90 μL) in the absence of cells. Subsequently, A2BAR^SNAP cells (90 μL) were plated at a cell density of 10,000 cells/well and grown for 18 h in the RTCA SP device station (Roche) at 37 °C in an atmosphere of 5% CO2. Then, before ligand addition, cell index values were normalized to the same time point using the RTCA software, providing the normalized cell index (NCI). After ligand stimulation, NCI was recorded every 15 s for a total time of at least 45 min. The area under the curve (AUC) for every condition was calculated using GraphPad Prism 9.

hA3AR = molecular target: T3, hA3AR (Homo sapiens, UniProt P0DMS8); assay: Radioligand binding competition, [3H]NECA, membranes from HeLa-A3 cells; conditions: 1 μM, [3H]NECA, human HeLa cells, n = 2
T3 construct: expressed in transfected cells; host or cells: HeLa (HeLa-A3) cell membranes
T3 sequence (P0DMS8 1-318): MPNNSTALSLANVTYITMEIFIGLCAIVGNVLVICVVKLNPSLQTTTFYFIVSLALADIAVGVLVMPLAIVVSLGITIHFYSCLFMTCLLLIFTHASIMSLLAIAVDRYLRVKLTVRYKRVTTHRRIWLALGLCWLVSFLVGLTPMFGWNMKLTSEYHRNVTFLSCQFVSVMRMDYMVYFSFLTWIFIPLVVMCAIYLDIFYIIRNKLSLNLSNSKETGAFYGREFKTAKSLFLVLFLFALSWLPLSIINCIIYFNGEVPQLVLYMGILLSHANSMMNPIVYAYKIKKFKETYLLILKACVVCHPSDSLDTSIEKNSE
In short: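 Racemates, plus selected enantiomers after chiral resolution, were tested at 25 °C, with a 60 min incubation for one subtype and 30 min for others. Non-specific binding was defined with 10 μM or 100 μM R-PIA. Bound radioactivity was counted after washing and filtration.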

| SMILES | CYP3A4 % inh. at 10 μM, 7-BFC (CYP3A4; 10 μM) [%] | IC50 (CYP3A4; substrate dibenzylfluorescein) [nM] | Blockade of NECA-induced changes in cellular impedance (AUC of normalized cell index) (A2BAR) | % at 1 μM hA3 (percentage displacement of specific binding) (hA3AR) [%] | CYP3A4 % inh. at 10 μM, DBF (CYP3A4; 10 μM, substrate dibenzylfluorescein) [%] |
| --- | --- | --- | --- | --- | --- |
| CC1=C(C(=O)OC(C)C)C(c2ccco2)n2c(nc3cc(Cl)ccc32)N1 (stereo not drawn) [16j] | 54 | 3680 ± 470 | significantly blocked | 2 |  |
| CC1=C(C(=O)OC(C)C)C(c2ccco2)n2c(nc3cc(Br)ccc32)N1 (stereo not drawn) [16r] | 52 | 2260 ± 300 | significantly blocked | 10 |  |
| CC1=C(C(=O)OC(C)C)C(c2ccco2)n2c(nc3cc(F)ccc32)N1 (stereo not drawn) [16b] | 63 |  | significantly blocked | 3 | 40 |
